Results on one compound are retold here after US4228156A, “Synthetic peptides having pituitary growth hormone releasing activity” (Beckman Instruments, Inc., priority 1979, dated 1980).

Non-standard residues stand in square brackets, D forms with d. Residues, ends and D or L forms follow the SMILES beside them.

The experiment relates to pituitaries removed from 20 day old female rats. Kind of experiment: In vitro growth hormone release study (incubated rat pituitaries, GH radioimmunoassay of the medium). To be noted: two pituitaries in 1 ml lactated Ringer's, 36° C., ± SEM. Format: cell-based, rats (CD-1 strain). On the procedure: Female rats of the CD-1 strain were housed in a constant temperature room at 24° C. with 14 hours light and 10 hours darkness. The rats were fed Purina brand rat chow ab libitum. All studies were started between 0800 and 1000 hours. Pituitaries were removed from 20 day old female rats. Two pituitaries were incubated at 36° C. in 1 ml of lactated Ringer's solution in 10 ml polytetrafluoroethylene beakers in a Dubnoff Shaker (90 cycles/min.). The pituitaries were incubated a total of 4 hours (P1, P2, I3, and I4). After two successive one hour preincubation periods (P1, P2), the peptide was added to the incubation medium hourly for 2 hours (I3, I4). This in vitro study was performed in triplicate and a standard radioimmunoassay of growth hormone present in the incubation medium was performed in duplicate. The hormonal activity was calculated as the difference (Δ) of growth hormone (GH) levels between I3, I4 and P2, i.e., (I3 -P2) and (I4 -P2). P values were calculated by Students' t test using six growth hormone values for each value recorded. The growth hormone radioimmunoassay reagents were distributed by the National Institute of Arthritis and Metabolite Disease Division (NIAMDD) program. The growth hormone values were calculated in terms of nanograms (ng) of a rat standard with a growth hormone potency of 0.61 units/mg.

`NC(=O)[C@H](Cc1ccccc1)NC(=O)[C@@H](Cc1c[nH]c2ccccc12)NC(=O)[C@H](N)Cc1c[nH]c2ccccc12` [H2 N--D-Trp--D-Trp--Phe--CONH2, H2 N-D-Trp-D-Trp-Phe-CONH2] (H-[dW]-[dW]-Phe-NH2): the “In vitro growth hormone release (ΔGH, I3-P2 and I4-P2)” value is recorded as 592 ± 237 ng.increment.GH/ml incubation (0.3μg peptide, P Value ~0.02); 943 ± 137 ng.increment.GH/ml incubation (1μg peptide, P Value <0.001); 1263 ± 293 ng.increment.GH/ml incubation (10μg peptide, P Value <0.001); 635 ± 165 ng.increment.GH/ml incubation (100μg peptide, P Value <0.01).
